Test results from PMC5526999, “Mass Spectrometry Imaging proves differential absorption profiles of well-characterised permeability markers along the crypt-villus axis” (Scientific Reports, 2017).

How the values were obtained:
[1] = parameters: method as in PMID 1673839, PMID 11259831, PMID 9523990; conditions: ref [1], [15] and [48]; cited from earlier work
[2] = MALDI-MSI of drug distribution in rat small intestine after oral cassette administration; type: in vivo; conditions: oral 10 µmol/kg
Description: Male rats (Han-Wistar, ~ 100 days old, body-weight ~ 300 g) were used in this study. […] All experiments were performed in accordance with relevant guidelines and regulations, the animal work was approved by the Local Animal Research Ethics Board of Gothenburg, Sweden. […] Four animals were dosed in this study, and non-dosed tissue was prepared from control rats in parallel. […] Therefore, in the present study we focussed on the concept of “vertical” absorption gradients along the crypt-villous axis, which has not been studied earlier. The intestine was removed under anaesthesia using isoflurane (Forene, Abbott, USA), to ensure full viability and oxygenation of the tissue until the moment of excision. Animals were sacrificed without regaining consciousness by aortal incision and an overdose of isoflurane. Immediately after excision, intestines were divided into 10 cm long segments and each segment was carefully washed with Krebs-Bicarbonate-Ringer buffer (KBR) from the stomach to the large intestine (additional information in Supplementary Data). The first 5–10 mm of each segment were cut, quickly weighed and collected in homogenization tubes for subsequent extraction and LCMS analysis of total drug concentration in the gut-wall. The next 8–9 cm of each segment were prepared for MALDI-MSI analysis. […] The CMC gels quickly on wet-ice/isopropanol and provides tissue support during the subsequent cryosectioning. All samples were stored at −20 °C until cryosectioning. The embedded samples were attached and positioned with OCT-compound (TissueTek) to the specimen holder of a microtome (Cryo-Star HM 560 M, Microm International, Germany) set to −20 °C. The samples were sectioned at 10 µm thickness. […] A control tissue section from the same intestinal region from non-dosed animal was placed on each slide to enable a direct comparison to be made. All slides were kept at −80 °C until MALDI-MSI analysis. Tissue sections were also stained using haematoxylin and eosin (H&E) following a standard histological protocol for fresh frozen tissues. […] Additional optimization was performed using a robotic matrix sprayer (TM-Sprayer, HTX Technologies, USA) in order to minimize delocalization and crystal size, while still maintaining adequate extraction of compound from the tissue. […] An optical image (9600 dpi) of the glass slide was acquired using a flatbed scanner (Epson perfection V500). The tissue sections were coated with DHB (35 mg/ml, 70% ACN, 0.2% TFA) using a robotic sprayer with a flow of rate 70 µl/min, stage speed of 1100 mm/min, track spacing of 2 mm (crisscross pattern), nitrogen pressure 6 psi, and spray nozzle temperature set to 95 °C for 8 passes. […] FlexImaging 4.0 (Bruker Daltonics) and msIQuant 2.0 was used for data analysis, normalization (to total ion count) and ion image extraction.

Caco-2 = tested on: Caco-2; parameters: method as in PMID 1673839, PMID 11259831, PMID 9523990; conditions: ref [1], [15] and [48]; cited from earlier work
[3] = LC-ESI MS/MS quantification of drug concentration in intestinal tissue homogenates after oral cassette administration; type: in vivo, rat
Description: Male rats (Han-Wistar, ~ 100 days old, body-weight ~ 300 g) were used in this study. […] All experiments were performed in accordance with relevant guidelines and regulations, the animal work was approved by the Local Animal Research Ethics Board of Gothenburg, Sweden. […] Four animals were dosed in this study, and non-dosed tissue was prepared from control rats in parallel. […] Therefore, in the present study we focussed on the concept of “vertical” absorption gradients along the crypt-villous axis, which has not been studied earlier. The intestine was removed under anaesthesia using isoflurane (Forene, Abbott, USA), to ensure full viability and oxygenation of the tissue until the moment of excision. Animals were sacrificed without regaining consciousness by aortal incision and an overdose of isoflurane. Immediately after excision, intestines were divided into 10 cm long segments and each segment was carefully washed with Krebs-Bicarbonate-Ringer buffer (KBR) from the stomach to the large intestine (additional information in Supplementary Data). The first 5–10 mm of each segment were cut, quickly weighed and collected in homogenization tubes for subsequent extraction and LCMS analysis of total drug concentration in the gut-wall. The next 8–9 cm of each segment were prepared for MALDI-MSI analysis. […] The CMC gels quickly on wet-ice/isopropanol and provides tissue support during the subsequent cryosectioning. All samples were stored at −20 °C until cryosectioning. […] The supernatants were transferred to fresh vials and centrifuged again under the same conditions. […] The samples were analysed by LC-MS/MS and quantified against a calibration standard curve. The LC-MS/MS analysis was performed using an electrospray ionization tandem quadrupole mass spectrometer (Quattro Premier, Waters, USA) in positive ionization mode. The mass spectrometer was integrated with an ultra-performance liquid chromatography (UPLC) system (Acquity, Waters) assisted with a column manager. Chromatography was performed on a column (Acquity UPLC HSS T3, 2.1 × 50 mm) at 40 °C. The flow rate was 1000 µL/min and the injection volume was 5 µL. The mobile phases consisted of A: water, 0.2% (v/v) formic acid and 2% (v/v) acetonitrile and B: acetonitrile, 0.2% (v/v) formic acid. […] Data was acquired using multiple reaction monitoring (MRM) and mass transitions determined by QuanOptimize (Waters). Instrument control and data processing was performed using MassLynx 4.1 software including QuanLynx (Waters).

[4] = no reference given; cited from earlier work
[5] = 20 min, 30 cm along the intestine, line graph along crypt-villus axis
[6] = oral 10 µmol/kg, 20 min post administration

Structure (SMILES)	Ion Class [1]	lower level at 45 min compared to 20 min (MSI) ([2]; 40 cm sample)	distance from the villus tips of significant reduction in abundance [2, 5]	Caco-2 Papp (Caco-2)	lower tissue concentration at 45 min compared to 20 min (LC-MS/MS) ([3]; oral 10 µmol/kg, 40 cm sample)	intestinal sample with highest concentration [3, 6] [cm]	intensity profile from villus tip to base (line graph) ([2]; 20 min, 30 cm along the intestine)	localisation across and within the villi (transverse profile) ([2]; 20 min, profile perpendicular to the villus axis)	distance from the pyloro-duodenal junction of highest concentration (LC-ESI MS/MS homogenates) ([3]; oral 1 µmol/kg, 20 min post administration) [cm]	distance over which the gradient from villus tip towards crypt region runs [2, 5] [µm]	lower tissue concentration at 45 min compared to 20 min (LC-MS/MS) ([3]; male, Han-Wistar, rat, in vivo, po)	Tmax in the rat [4] [min]
CC(C)NCC(O)COc1cccc2ccccc12 (stereo not drawn) [Propranolol]	Base	about 3 fold	400–500 µm	41.9 1E-6.cm/s	about 3 fold	30						
CC(C)NCC(O)COc1ccc(CC(N)=O)cc1 (stereo not drawn) [Atenolol]	Base					20	maintain similar intensities all the way from the villus tip to the basal regions	localized primarily between the villi	50			
COCCc1ccc(OCC(O)CNC(C)C)cc1 (stereo not drawn) [Metoprolol]				27.0 1E-6.cm/s						200	about 3 fold	< 20
